Experimental data taken from paper PMC3344384 (Chemistry & biology, 2011).
Entries after “also recorded” stand apart in the source; their conditions may differ.

Experiments:
USP1/UAF1 [1] = target: T1, USP1/UAF1 (Homo sapiens, UniProt O94782); assay: gel-based K63-linked diubiquitin cleavage assay, USP1/UAF1; format: biochemical; conditions: IC50 USP1/UAF1, K63-linked diubiquitin substrate; NI = no significant inhibition at highest inhibitor concentration of 114 μM
USP46/UAF1 = USP46/UAF1 (Homo sapiens, UniProt P62068); assay: K63-linked diubiquitin cleavage assay, USP46/UAF1; format: biochemical; conditions: for IC50 USP46/UAF1: K63-linked diubiquitin substrate, NI = no significant inhibition at 114 μM
USP46/UAF1, sequence (P62068 whole entry): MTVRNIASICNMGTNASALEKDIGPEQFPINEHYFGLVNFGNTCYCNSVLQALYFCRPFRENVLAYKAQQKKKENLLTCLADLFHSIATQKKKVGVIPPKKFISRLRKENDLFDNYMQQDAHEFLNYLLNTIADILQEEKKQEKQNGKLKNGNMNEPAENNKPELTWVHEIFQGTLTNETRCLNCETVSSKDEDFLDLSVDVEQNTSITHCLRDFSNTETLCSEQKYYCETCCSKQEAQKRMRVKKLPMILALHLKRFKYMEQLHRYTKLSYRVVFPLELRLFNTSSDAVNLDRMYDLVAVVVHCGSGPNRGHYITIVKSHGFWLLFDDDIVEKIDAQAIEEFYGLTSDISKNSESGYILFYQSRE
USP46/UAF1, sequence (Q8TAF3 whole entry partner): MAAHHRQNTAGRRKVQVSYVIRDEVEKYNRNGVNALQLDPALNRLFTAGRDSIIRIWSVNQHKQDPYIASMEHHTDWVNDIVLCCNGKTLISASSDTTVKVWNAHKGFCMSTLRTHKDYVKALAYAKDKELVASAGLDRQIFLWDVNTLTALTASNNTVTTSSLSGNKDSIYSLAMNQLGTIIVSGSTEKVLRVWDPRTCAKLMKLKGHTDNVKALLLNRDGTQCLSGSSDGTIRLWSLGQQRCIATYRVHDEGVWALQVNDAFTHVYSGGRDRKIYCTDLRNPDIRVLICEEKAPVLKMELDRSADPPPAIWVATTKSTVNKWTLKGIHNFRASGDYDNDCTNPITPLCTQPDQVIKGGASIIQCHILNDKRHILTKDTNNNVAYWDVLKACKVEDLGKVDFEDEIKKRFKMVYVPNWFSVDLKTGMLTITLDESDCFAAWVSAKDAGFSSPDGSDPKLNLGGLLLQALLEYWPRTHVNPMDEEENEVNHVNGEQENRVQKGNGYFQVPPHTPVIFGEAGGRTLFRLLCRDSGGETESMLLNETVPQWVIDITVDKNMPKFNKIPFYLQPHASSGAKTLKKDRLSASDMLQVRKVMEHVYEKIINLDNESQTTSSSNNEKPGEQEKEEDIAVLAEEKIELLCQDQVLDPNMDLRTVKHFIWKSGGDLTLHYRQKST

USP1 alone = target: T2, USP1 alone (Homo sapiens, UniProt O94782); assay: Ub-Rho assay, USP1 alone; format: biochemical; conditions: Ub-Rho substrate, absence of UAF1 subunit
T2 sequence (O94782 1-785): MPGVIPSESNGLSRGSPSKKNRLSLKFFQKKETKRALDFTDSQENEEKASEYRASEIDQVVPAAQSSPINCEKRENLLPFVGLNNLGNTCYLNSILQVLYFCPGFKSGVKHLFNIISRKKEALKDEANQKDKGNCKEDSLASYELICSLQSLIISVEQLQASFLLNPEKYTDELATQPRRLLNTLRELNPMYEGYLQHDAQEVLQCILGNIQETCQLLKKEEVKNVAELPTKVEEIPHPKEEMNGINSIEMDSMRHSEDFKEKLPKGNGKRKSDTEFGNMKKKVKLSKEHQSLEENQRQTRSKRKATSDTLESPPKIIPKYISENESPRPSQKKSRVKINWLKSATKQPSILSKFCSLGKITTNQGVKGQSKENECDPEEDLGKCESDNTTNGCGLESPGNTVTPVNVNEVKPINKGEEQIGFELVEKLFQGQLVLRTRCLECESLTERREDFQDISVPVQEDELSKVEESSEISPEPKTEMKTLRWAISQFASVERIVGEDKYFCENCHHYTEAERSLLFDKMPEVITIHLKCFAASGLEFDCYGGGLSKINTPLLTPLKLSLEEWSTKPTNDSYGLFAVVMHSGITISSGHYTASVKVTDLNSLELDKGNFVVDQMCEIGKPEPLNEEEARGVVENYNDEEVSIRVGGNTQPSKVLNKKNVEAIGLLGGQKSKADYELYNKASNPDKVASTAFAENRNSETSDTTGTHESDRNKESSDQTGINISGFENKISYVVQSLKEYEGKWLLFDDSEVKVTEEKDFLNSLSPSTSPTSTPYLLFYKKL

USP1/UAF1 [2] = target: T1, USP1/UAF1; assay: steady-state kinetics; format: biochemical
USP1/UAF1 [3] = target: USP1/UAF1 (Homo sapiens, UniProt O94782+Q8TAF3); assay: steady-state kinetics; format: biochemical; conditions: Lineweaver-Burk plots, K63-linked di-Ub substrate
USP1/UAF1 (Homo sapiens, UniProt O94782+Q8TAF3), sequence (Q8TAF3 whole entry, one chain of several): as the sequence (Q8TAF3 whole entry partner) above

Ub-PCNA in HEK293T cells = assay: Western blot of Ub-PCNA level in cells; format: cell-based, human
[4] = tested on: Ub-FANCD2 in HEK293T cells; assay: Western blot of Ub-FANCD2 level in cells; format: cell-based, human
Ub-H2A in HEK293T cells = assay: histone H2A monoubiquitination in cells; format: cell-based, human; conditions: in the presence or absence of cisplatin
USP1/UAF1 complex = USP1/UAF1 complex (Homo sapiens, UniProt O94782+Q8TAF3); assay: native gel electrophoresis of USP1/UAF1 complex; conditions: incubation with inhibitor up to 10 × IC50
USP1/UAF1 complex, sequence (Q8TAF3 whole entry, one chain of several): as the sequence (Q8TAF3 whole entry partner) above

in vitro = conditions: human

T1 sequence (Q8TAF3 whole entry, one chain of several, further chain): as the sequence (Q8TAF3 whole entry partner) above

| Compound | IC50 (USP1/UAF1 [1]) [µM] | IC50 USP46/UAF1 (USP46/UAF1) | inhibition of USP1 alone (USP1 alone) | Ki (USP1/UAF1 [2]) [µM] | inhibition mechanism (USP1/UAF1 [3]) | monoubiquitination of PCNA, single agent (Ub-PCNA in HEK293T cells) | Ub-FANCD2 level, single agent [4] | effect on level of Ub-H2A (Ub-H2A in HEK293T cells) | dissociation of the USP1/UAF1 complex (USP1/UAF1 complex) | EC50 at 48 h (in vitro) [µM] | IC50 (USP46/UAF1) [µM] |
| --- | --- | --- | --- | --- | --- | --- | --- | --- | --- | --- | --- |
| OCCN1CCN(CCC=C2c3ccccc3Sc3ccc(C(F)(F)F)cc32)CC1 [Flupenthixol, flupenthixol] | 7 ± 1 | did not inhibit | low level of inhibition | – | – | – | – | – | – | – | – |
| O=c1[nH]c2ccccc2n1C1CCN(CCCC(c2ccc(F)cc2)c2ccc(F)cc2)CC1 [Pimozide, pimozide] | – | did not inhibit | low level of inhibition | 0.5 | noncompetitively; also recorded: noncompetitive inhibition mechanism | significant increase | increase in Ub-FANCD2 level | no effect | no dissociation | 21 | – |
| CN1CCN(CCCN2c3ccccc3Sc3ccc(C(F)(F)F)cc32)CC1 [Trifluoperazine, trifluoperazine] | ≤ 8 | did not inhibit | low level of inhibition | – | – | – | – | – | – | – | – |
| CC(C)(Sc1ccc(CCN(CCCCC2CCCCC2)C(=O)NC2CCCCC2)cc1)C(=O)O [GW7647] | – | – | low level of inhibition | 0.7 | noncompetitively; also recorded: noncompetitive inhibition mechanism | significant increase | increase in Ub-FANCD2 level | no effect | no dissociation | 26 | 12 ± 1 |
